Measurements: patent US20090203663A1, “CHEMICAL COMPOUNDS” (AstraZeneca AB, priority 2006, published 2009)

Tests used:
human α5β1 = molecular target: T1, human α5β1 (Homo sapiens, UniProt P05556+P08648); experiment: In vitro binding assay: inhibition of α5β1 integrin binding to human fibronectin fragment Fn9-10 (Origen electrochemiluminescence); settings: α5β1 integrin binding to biotinylated Fn9-10; IC50 data; unit inferred
T1 construct: human α5β1 purified from placenta; purchased Chemicon CC1055-K; host or cells: human placenta (tissue-purified)
T1 sequence (P08648 42-894 limits assumed): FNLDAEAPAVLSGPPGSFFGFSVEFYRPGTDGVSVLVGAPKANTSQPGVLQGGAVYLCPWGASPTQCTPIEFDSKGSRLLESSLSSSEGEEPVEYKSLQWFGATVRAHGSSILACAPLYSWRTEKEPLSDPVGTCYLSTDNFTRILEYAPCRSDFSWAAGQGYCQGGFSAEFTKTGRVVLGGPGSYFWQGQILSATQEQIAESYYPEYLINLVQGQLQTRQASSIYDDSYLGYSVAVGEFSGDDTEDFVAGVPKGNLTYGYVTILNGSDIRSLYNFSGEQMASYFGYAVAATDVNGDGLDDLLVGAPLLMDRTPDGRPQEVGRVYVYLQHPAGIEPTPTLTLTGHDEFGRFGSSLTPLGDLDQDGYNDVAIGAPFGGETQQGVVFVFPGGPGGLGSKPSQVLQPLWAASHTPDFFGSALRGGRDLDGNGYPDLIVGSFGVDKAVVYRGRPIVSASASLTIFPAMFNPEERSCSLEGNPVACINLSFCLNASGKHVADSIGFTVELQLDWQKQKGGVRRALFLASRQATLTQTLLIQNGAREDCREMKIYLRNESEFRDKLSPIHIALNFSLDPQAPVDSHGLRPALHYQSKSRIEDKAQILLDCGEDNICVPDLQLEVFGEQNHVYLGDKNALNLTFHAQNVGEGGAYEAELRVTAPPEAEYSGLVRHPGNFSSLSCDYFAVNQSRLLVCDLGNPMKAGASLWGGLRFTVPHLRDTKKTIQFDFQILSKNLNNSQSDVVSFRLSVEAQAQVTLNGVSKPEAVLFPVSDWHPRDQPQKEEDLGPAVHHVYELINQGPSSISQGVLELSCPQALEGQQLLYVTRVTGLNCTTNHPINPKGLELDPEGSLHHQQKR
T1 sequence (P08648 895-1049 partner limits assumed): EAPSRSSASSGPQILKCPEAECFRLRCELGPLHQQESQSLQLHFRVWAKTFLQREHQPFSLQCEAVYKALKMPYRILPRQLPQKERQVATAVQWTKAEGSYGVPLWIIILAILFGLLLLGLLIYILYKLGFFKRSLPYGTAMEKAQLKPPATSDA
T1 sequence (P05556 21-798): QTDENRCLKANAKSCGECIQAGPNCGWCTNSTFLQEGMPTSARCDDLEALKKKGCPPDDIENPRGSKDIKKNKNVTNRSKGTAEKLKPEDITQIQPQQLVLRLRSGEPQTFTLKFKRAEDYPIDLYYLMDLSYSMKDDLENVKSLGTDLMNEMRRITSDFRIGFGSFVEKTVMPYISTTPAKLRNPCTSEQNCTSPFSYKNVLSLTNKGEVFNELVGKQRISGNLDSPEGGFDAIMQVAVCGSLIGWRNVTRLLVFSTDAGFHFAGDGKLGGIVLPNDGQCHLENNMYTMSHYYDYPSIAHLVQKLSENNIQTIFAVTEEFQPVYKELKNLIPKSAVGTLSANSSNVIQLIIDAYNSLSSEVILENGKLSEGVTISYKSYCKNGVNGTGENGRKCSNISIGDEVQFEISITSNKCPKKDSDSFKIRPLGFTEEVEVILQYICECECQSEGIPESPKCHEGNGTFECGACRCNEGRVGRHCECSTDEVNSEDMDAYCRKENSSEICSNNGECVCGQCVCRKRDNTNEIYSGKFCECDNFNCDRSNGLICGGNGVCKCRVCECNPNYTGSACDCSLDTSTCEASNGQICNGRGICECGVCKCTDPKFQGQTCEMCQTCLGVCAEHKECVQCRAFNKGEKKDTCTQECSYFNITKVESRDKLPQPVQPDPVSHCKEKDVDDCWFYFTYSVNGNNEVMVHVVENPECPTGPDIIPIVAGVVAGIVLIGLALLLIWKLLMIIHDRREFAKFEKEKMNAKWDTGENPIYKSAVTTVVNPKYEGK
From the text: The assay determined the ability of compounds to inhibit binding of α5β1 integrin to a cognate ligand, a fragment of human fibronectin. The assay used Origen technology (IGEN International) to measure the compound activity. Briefly, α5β1 integrin was coated onto epoxy-paramagnetic beads (Dynal Biotech UK, Bromborough, Wirral, CH62 3QL, UK, Catalogue No 143.02) and biotinylated-fibronectin ligand was coupled to strepatividin labelled BV-Tag-NHS-Ester (BioVeris Corporation, Witney, Oxfordshire, OX28 4GE, UK, Catalogue No JSF396). The ruthenium-labelled BV-Tag emits a electrochemiluminescence signal upon stimulation which is detected by the Origen reader. Thus, interaction of integrin and ligand causes association of bead and tag, and the resulting electrochemiluminescence signal reflects the level of integrin interaction with fibronectin.
Coated beads were then washed into Assay Buffer (25 mM Hepes, 150 mM NaCl, 1 mM MgCl, 1 mM MnCl, 0.1% Tween, pH7.4) to give a final concentration of 20 µg of α5β1/ml. Immediately prior to the assay, the beads were further diluted ×40 fold in Assay Buffer to give a concentration of 0.5 μg α5β1/ml.
A DNA fragment encoding the domains 9-10 (amino-acids 1325-1509) of human fibronectin (Swiss-Prot Acession No. P02751) was isolated from cDNA libraries using standard molecular biology and PCR cloning techniques. The cDNA fragment was sub-cloned into a pT73.3 expression vector containing a GST-epitope tag (developed at AstraZeneca; Bagnall et al., Protein Expression and Purification, 2003, 27: 1-11). Following expression in E. coli, the expressed protein, termed Fn9-10, was purified using the GST-tag using standard purification techniques. The recombinant Fn9-10 was subsequently biotinylated using a EZ-link Sulfo-NHS-LC-Biotinylation kit (Perbio Science UK Ltd., Cramlington, Northumberland, NE23 1WA, UK, Catalogue No. 21335) and made to give a final concentration of approximately 1 mg/ml. BV-Tag-NHS-Ester was is labelled with streptavidin by incubation at room temperature following manufacturers instructions and buffer-exchanged into PBS to give a concentration of 0.5 mg/ml. Immediately prior to the assay, biotinylated-Fn9-10 and Streptavidin-labelled BV-Tag were diluted in Assay Buffer to give a final concentrations of 0.6 ug/ml and 1.5 ug/ml respectively. The Fn9-10 and BV-Tag solutions were then mixed together in equal volumes and incubated on ice for at least 30 minutes prior to the assay.
Test compounds were prepared as 10 mM stock solutions in DMSO (Sigma-Aldrich Company Ltd, Gillingham, Dorset SP8 4XT Catalogue No. 154938) and serially diluted with 4% DMSO to give a range of test concentrations at ×4 required final concentration. Aliquots (20 μl) of each compound dilution were placed into each well of a 384-well round bottomed polypropylene plate (Matrix Technologies, Wilmslow, Cheshire, SK9 3LP, Catalogue No. 4340 384). Each plate also contained control wells: maximum signal was created using wells containing 20 μl of 4% DMSO, and minimum signal corresponding to no binding was created using wells containing 20 μl of 80 mM EDTA (Sigma Catalogue No. E7889).
For the assay, 20 μl of a5b1-bead suspension and 40 μl of the Fn9-10/BV-Tag preincubated solution were added to each well containing 20 μl of compound or control solution. Assay plates were then incubated at room temperature for a minimum of 6 hours before being analysed on the Origen plate reader. […]

[1] = molecular target: T2, a5β1 integrin mediated adhesion of K562 cells (Homo sapiens, UniProt P05556+P08648); experiment: In vitro cell adhesion assay: adhesion of K562 cells to fibronectin fragment Fn9-10 (crystal violet); type: cell-based; settings: K562 cells on Fn9-10 coated plates, 0.2 mM MnCl, 45 minutes; IC50 data; unit inferred
T2 construct: a5β1 integrin mediated adhesion of K562 cells; host or cells: K562 human erythroleukaemia cells
T2 sequence (P08648 42-894 limits assumed): as the sequence (P08648 42-894 limits assumed) above
T2 sequence (P08648 895-1049 partner limits assumed): as the sequence (P08648 895-1049 partner limits assumed) above
T2 sequence (P05556 21-798): as the sequence (P05556 21-798) above
From the text: The assay determined the ability of compounds to inhibit the a5β1 integrin mediated adhesion of K562 cells to the ligand, a fragment of human fibronectin. The human K562 erythroleukaemia cell line (LGC Promochem, Teddington, Middlesex, UK, Catalogue No. CCL-243) was routinely maintained in RPMI 1640 medium (Sigma-Aldrich Company Ltd, Gillingham, Dorset SP8 4XT, Catalogue No. R0883) containing 10% heat-inactivated foetal calf serum (PAA lab GmbH, Pasching, Austria Catalogue No. PAA-A15-043) and 1% glutamax-1 (Invitrogen Ltd. Paisley, UK Catalogue No. 35050-038) at 37° C. with 5% CO2 at densities between 1×10^5 and 1×10^6 cells/ml.
A DNA fragment encoding the domains 9-10 (amino-acids 1325-1509) of human fibronectin (Swiss-Prot Acession No. P02751) was isolated from cDNA libraries using standard molecular biology and PCR cloning techniques. The cDNA fragment was sub-cloned into a pT7#3.3 expression vector containing a GST-epitope tag (developed at AstraZeneca; Bagnall et al., Protein Expression and Purification, 2003, 27: 1-11), and the fragment termed Fn9-10. Following expression in E. coli, the expressed protein was purified using the GST-tag using standard purification techniques.
For adhesion assay, a 96-well flat bottomed plate (Greiner Bio one ltd., Gloucester GL10 3SX Catalogue No. 655101) was coated overnight at 4° C. with 100 μl of 20 μg/ml Fn9-10 ligand in Dulbecco's PBS (Gibco#14190-94). The plate was then washed twice with 200 μl of PBS and blocked with 100 μl of 3% BSA (SigmaA7888) in PBS for 1 hour at 37° C. The plates were then washed again 3 times with 200 μl of PBS and left empty.
Test compounds were prepared as 10 mM stock solutions in DMSO (Sigma-Aldrich Company Ltd, Gillingham, Dorset SP8 4XT Catalogue No. 154938) and serially diluted with HBSS (Hanks Buffered Salt solution (Gibco Catalogue No. 14170-088)/2% DMSO to give a range of test concentrations at twice required final concentration. Aliquots (50 μl) of each compound dilution were placed into each well of the Fn9-10 coated plates. Each plate also contained control wells: maximum adhesion signal was created using wells containing 50 μl HBSS/2% DMSO, and minimum signal corresponding to no adhesion was created using wells containing 50 μl HBSS/2% DMSO/20 mM EDTA (Sigma Catalogue No. E7889).
The K562 cells were cultured to ˜1×10^6 cells/ml, and each culture suspension pooled. Cells were centrifuged at 1200 rpm for 2 mins, and the pellets washed with HBSS followed by HBSS/50 mM HEPES (Sigma Catalogue No. H0887). Cell pellets were pooled and resuspended in HBSS/0.4 mM manganese chloride/50 mM HEPES (MnCl; Sigma Catalogue No. M1787) to give a final concentration of 4×10^6 cells/ml.
The assay was initiated by the addition of 50 μl of cell suspension into each coated well (200,000 cells/well), thus resulting in final desired compound concentration and a final MnCl concentration of 0.2 mM. The plates were incubated for 45 minutes at 37° C. 5% CO2. […]
After fixation, the ethanol was flicked off to waste and 100 μl of 0.1% Crystal violet stain was added to each well, and incubated at ambient temperature for 15 minutes. […] Finally, 100 μl of deionised water was added to each well and the absorbance was determined at 590 nm on a spectrophotometer. The minimum value was subtracted from all values, and the absorbance signal was plotted against compound concentration to generate IC50 data.

Compound	IC50 (human α5β1)	IC50 [1]
CN1CCC(Oc2ccc(C[C@H](NC(=O)c3c(Cl)cccc3Cl)C(=O)O)cc2)CC1 [Example 20, N-(2,6-Dichlorobenzoyl)-O-(1-methylpiperidin-4-yl)-L-tyrosine]	0.185 µM	2.4 µM
Cc1cc(C(=O)N2CC(Oc3ccc(C[C@H](NC(=O)c4c(Cl)cccc4Cl)C(=O)O)cc3)C2)ccc1F [Example 48, N-(2,6-dichlorobenzoyl)-O-[1-(4-fluoro-3-methylbenzoyl)azetidin-3-yl]-L-tyrosine]	0.466 µM	4 µM
O=C(N[C@@H](Cc1ccc(O[C@H]2CCCN(Cc3cc(F)ccc3F)C2)cc1)C(=O)O)c1c(Cl)cccc1Cl [Example 76, N-(2,6-dichlorobenzoyl)-O-[(3S)-1-(2,5-difluorobenzyl)piperidin-3-yl]-L-tyrosine]	4.1 µM	11.4 µM
N#Cc1cccc(CN2CCC(Oc3ccc(C[C@H](NC(=O)c4c(Cl)cccc4Cl)C(=O)O)cc3)CC2)c1 [Example 83, O-[1-(3-cyanobenzyl)piperidin-4-yl]-N-(2,6-dichlorobenzoyl)-L-tyrosine]	1.7 µM	6.6 µM
N-(2,6-Dichlorobenzoyl)-O-[(3R)-pyrrolidin-3-yl]-L-tyrosine [Example 17]	1.2 µM	9.3 µM
